The values that follow come from ChEMBL document CHEMBL1148145, “2,3,4-Trimethyl-5,7-dihydroxy-2,3-dihydrobenzofuran, a novel antioxidant, from Penicillium citrinum F5” (J Nat Prod, 2002).

This assay relates to Radical scavenging activity. In words: Antioxidant activity assessed as DPPH radical scavenging activity after 30 mins by spectrophotometry. The format is functional. On the technique in general: Loss of DPPH colour is used to gauge radical scavenging.

As usually defined, the IC50 is the concentration at which inhibition is half-maximal. Turning to `Cc1c(O)cc(O)c2c1[C@@H](C)[C@H](C)O2`, the IC50 came out at 10.4 µM.
Then `O=C1O[C@H]([C@@H](O)CO)C(O)=C1O` [ASCORBIC ACID], with 8.92 µM.
Then `O=C(O)c1cc(O)ccc1O` [GENTISIC ACID], with 4.26 µM; and `CC(C)(Sc1cc(C(C)(C)C)c(O)c(C(C)(C)C)c1)Sc1cc(C(C)(C)C)c(O)c(C(C)(C)C)c1` [PROBUCOL], with 36.1 µM.
Then `Cc1c(C)c2c(c(C)c1O)CCC(C)(C(=O)O)O2` (stereo not given) [TROLOX], with 8.77 µM.
